The results in this text go back to patent publication US8853230B2, “Inhibitors of JAK” (Portola Pharmaceuticals, Inc., priority 2009, dated 2014).

One assay has as its target Syk (Homo sapiens, UniProt P43405). Kind of assay: Syk IC50 (Table 1; method not given). The class given is biochemical.
The target in a further assay is T1, JAK3 (Homo sapiens, UniProt P52333).
T1 construct: 5 μl of catalytic domain recombinant Kinase enzyme+Tyr peptide substrate (Invitrogen, Calif.); purchased Invitrogen
Kind of assay: Z'-LYTE kinase assay, JAK3 tyrosine phosphorylation activity. Type of assay: biochemical. The gist of the method:
(§1)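 Inhibition is expressed as substrate phosphorylation relative to inhibitor-free wells, fitted with a 4-parameter logistic model for IC50. Reactions contain catalytic-domain kinase, Tyr6 peptide and ATP, run 1 h at room temperature. Development protease is added for 1 h before fluorescence readout.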

A further assay concerns the target T2, JAK1 (Homo sapiens, UniProt P23458).
T2 construct: 5 μl of catalytic domain recombinant Kinase enzyme+Tyr peptide substrate (Invitrogen, Calif.); purchased Invitrogen
Kind of assay: Z'-LYTE kinase assay, JAK1 tyrosine phosphorylation activity. Type of assay: biochemical. The conditions noted are these: read-out: JAK 1 IC50. The gist of the method:
as §1

In another assay the target is T3, JAK2 (Homo sapiens, UniProt O60674).
T3 construct: 5 μl of catalytic domain recombinant Kinase enzyme+Tyr peptide substrate (Invitrogen, Calif.); purchased Invitrogen
Kind of assay: Z'-LYTE kinase assay, JAK2 tyrosine phosphorylation activity. The class given is biochemical. The gist of the method: as §1

A further assay addresses T4, TYK2 (Homo sapiens, UniProt P29597).
T4 construct: 5 μl of catalytic domain recombinant Kinase enzyme+Tyr peptide substrate (Invitrogen, Calif.); purchased Invitrogen
T4 sequence (P29597 897-1176 limits assumed): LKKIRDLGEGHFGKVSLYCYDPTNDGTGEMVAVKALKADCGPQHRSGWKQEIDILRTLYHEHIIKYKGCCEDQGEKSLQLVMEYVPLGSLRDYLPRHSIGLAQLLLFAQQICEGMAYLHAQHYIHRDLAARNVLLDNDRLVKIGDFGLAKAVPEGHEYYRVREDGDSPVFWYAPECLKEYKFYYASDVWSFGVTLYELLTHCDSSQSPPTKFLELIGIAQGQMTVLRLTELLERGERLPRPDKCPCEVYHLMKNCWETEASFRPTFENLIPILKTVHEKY
Kind of assay: Z'-LYTE kinase assay, TYK2 tyrosine phosphorylation activity. The class given is biochemical. The gist of the method:
as §1

For assay [1], the system named is IL4-induced phospho STAT6 formation in Ramos B lymphocytes. Kind of assay: Inhibition of IL4-induced phospho STAT6 formation in Ramos B lymphocytes (flow cytometry). Type of assay: cell-based, human. The conditions noted are these: Homo sapiens; for inhibition at 0.2 µM: 200 nM compound, read-out: % Inhibition of IL-4 Induced STAT6 Phosphorylation 200 nM; for inhibition at 1 µM: 1 μM compound, read-out: % Inhibition of IL-4 Induced STAT6 Phosphorylation 1 μM. An outline of the steps: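 Human Ramos B cells (0.5 million) pre-incubated 1 h at 37°C/5% CO2 with compound or DMSO, then stimulated with 1 ng/ml IL4 for 10 min. Cells were PFA-fixed, methanol-permeabilized and stained with Alexa-anti-phosphoSTAT6 (Y641); flow cytometry mean fluorescence gave percent inhibition of the IL4 signal.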
For orientation: A flow cytometer gives signals particle by particle.

T3 sequence (O60674 849-1124 limits assumed): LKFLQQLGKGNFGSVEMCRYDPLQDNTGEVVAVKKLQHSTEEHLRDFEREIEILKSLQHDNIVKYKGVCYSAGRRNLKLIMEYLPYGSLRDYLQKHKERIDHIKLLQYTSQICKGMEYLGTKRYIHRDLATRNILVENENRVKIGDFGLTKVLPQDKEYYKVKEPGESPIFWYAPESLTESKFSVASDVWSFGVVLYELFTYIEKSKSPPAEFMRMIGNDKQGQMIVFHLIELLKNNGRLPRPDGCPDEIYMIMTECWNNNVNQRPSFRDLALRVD
T2 sequence (P23458 875-1153 limits assumed): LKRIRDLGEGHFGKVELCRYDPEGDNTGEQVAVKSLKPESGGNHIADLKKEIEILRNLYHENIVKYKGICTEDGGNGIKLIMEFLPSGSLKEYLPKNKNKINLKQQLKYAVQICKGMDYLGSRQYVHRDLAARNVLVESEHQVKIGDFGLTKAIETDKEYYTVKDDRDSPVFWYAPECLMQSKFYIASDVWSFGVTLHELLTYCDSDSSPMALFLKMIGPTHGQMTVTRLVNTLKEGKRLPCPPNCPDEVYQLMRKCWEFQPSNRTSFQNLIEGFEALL
T1 sequence (P52333 822-1111 limits assumed): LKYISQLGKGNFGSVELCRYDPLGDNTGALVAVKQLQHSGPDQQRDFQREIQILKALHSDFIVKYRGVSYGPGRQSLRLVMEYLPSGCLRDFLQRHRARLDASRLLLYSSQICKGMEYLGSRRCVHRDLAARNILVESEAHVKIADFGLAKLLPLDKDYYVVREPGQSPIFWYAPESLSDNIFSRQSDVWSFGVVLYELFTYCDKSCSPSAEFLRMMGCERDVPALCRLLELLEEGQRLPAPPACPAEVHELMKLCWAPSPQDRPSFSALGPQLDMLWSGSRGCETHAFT

For the molecule `CC(=O)Nc1cccc(Nc2ncc(C(N)=O)c(N[C@H]3CCC[C@@H]3O)n2)c1` (relative stereo) [Example 53, 2-(3-acetamidophenylamino)-4-((trans)-2-hydroxycyclopentylamino)pyrimidine-5-carboxamide], the IC50 on Syk is 100 to 1000 nM; against JAK3, 1 to 10 nM; at JAK1, 10 to 100 nM; against JAK2, 10 to 100 nM.
Regarding `CC(=O)Nc1cccc(Nc2ncc(C(N)=O)c(NC3CCC3)n2)c1` [Example 1, 2-(3-acetamidophenylamino)-4-(cyclobutylamino)pyrimidine-5-carboxamide], the IC50 against Syk was in the range of 100 to 1000 nM; against JAK3, 1 to 10 nM; at JAK1, 10 to 100 nM; at JAK2, 10 to 100 nM.
For `CC(=O)Nc1cccc(Nc2ncc(C(N)=O)c(NC[C@@H](C)c3ccccc3)n2)c1` [Example 3, (S)-2-(3-acetamidophenylamino)-4-(2-phenylpropylamino)pyrimidine-5-carboxamide], the IC50 against Syk is greater than 1000 nM; against JAK3 it was 1 to 10 nM; at JAK1, 10 to 100 nM; on JAK2, 1 to 10 nM.
On to `CNc1nc(Nc2cccc(NC(C)=O)c2)ncc1C(N)=O` [Example 8, 2-(3-acetamidophenylamino)-4-(methylamino)pyrimidine-5-carboxamide], for which the IC50 at Syk was 100 to 1000 nM.
At Syk, `CCNc1nc(Nc2cccc(NC(C)=O)c2)ncc1C(N)=O` [Example 9, 2-(3-acetamidophenylamino)-4-(ethylamino)pyrimidine-5-carboxamide] had an IC50 of 100 to 1000 nM.
Same read-out and setting: the result for `C#CCNc1nc(Nc2cccc(NC(C)=O)c2)ncc1C(N)=O` [Example 10, 2-(3-acetamidophenylamino)-4-(prop-2-ynylamino)pyrimidine-5-carboxamide] reads 100 to 1000 nM.
Molecule `CC(=O)Nc1cccc(Nc2ncc(C(N)=O)c(NC(C)C)n2)c1` [Example 11, 2-(3-acetamidophenylamino)-4-(isopropylamino)pyrimidine-5-carboxamide] displayed an IC50 on Syk of 100 to 1000 nM.
The same measure, in the same setting: the result for `CC(=O)Nc1cccc(Nc2ncc(C(N)=O)c(NCC3CC3)n2)c1` [Example 12, 2-(3-acetamidophenylamino)-4-(cyclopropylmethylamino)pyrimidine-5-carboxamide] reads 100 to 1000 nM; that for `CC(=O)Nc1cccc(Nc2ncc(C(N)=O)c(NC(C)(C)C)n2)c1` [Example 13, 2-(3-acetamidophenylamino)-4-(tert-butylamino)pyrimidine-5-carboxamide], 100 to 1000 nM; that for `COCCNc1nc(Nc2cccc(NC(C)=O)c2)ncc1C(N)=O` [Example 14, 2-(3-acetamidophenylamino)-4-(2-methoxyethylamino)pyrimidine-5-carboxamide], 100 to 1000 nM.
On to `CC(=O)Nc1cccc(Nc2ncc(C(N)=O)c(NC3CCCC3)n2)c1` [Example 15, 2-(3-acetamidophenylamino)-4-(cyclopentylamino)pyrimidine-5-carboxamide], for which the IC50 is 100 to 1000 nM on Syk, 1 to 10 nM against JAK3, 10 to 100 nM at JAK1 and 10 to 100 nM against JAK2.
In turn, `COCCCNc1nc(Nc2cccc(NC(C)=O)c2)ncc1C(N)=O` [Example 16, 2-(3-acetamidophenylamino)-4-(3-methoxypropylamino)pyrimidine-5-carboxamide] showed an IC50 against Syk of 100 to 1000 nM.
For `COC(=O)Nc1cc(Nc2ncc(C(N)=O)c(NCC(F)(F)F)n2)ccc1Cl` [Example 18, methyl 5-(5-carbamoyl-4-(2,2,2-trifluoroethylamino)pyrimidin-2-ylamino)-2-chlorophenylcarbamate], the IC50 against Syk was greater than 1000 nM; on JAK3 it was 10 to 100 nM; at JAK1 it was greater than 1000 nM; on JAK2, 100 to 1000 nM.
Turning to `NC(=O)c1cnc(Nc2cccc(NC(=O)C3CC3)c2)nc1NC1CCCC1` [Example 19, 4-(cyclopentylamino)-2-(3-(cyclopropanecarboxamido)phenylamino)pyrimidine-5-carboxamide], the concentration for half-maximal inhibition (IC50) on Syk was 100 to 1000 nM; against JAK3, 1 to 10 nM; at JAK1 it was 10 to 100 nM; at JAK2, 10 to 100 nM.
For `CCC(=O)Nc1cccc(Nc2ncc(C(N)=O)c(NC3CCCC3)n2)c1` [Example 21, 4-(cyclopentylamino)-2-(3-propionamidophenylamino)pyrimidine-5-carboxamide], the IC50 lay in the range of 100 to 1000 nM against Syk, 1 to 10 nM against JAK3, 10 to 100 nM on JAK1 and 10 to 100 nM at JAK2.
Take `COCC(=O)Nc1cccc(Nc2ncc(C(N)=O)c(NC3CCCC3)n2)c1` [Example 22, 4-(cyclopentylamino)-2-(3-(2-methoxyacetamido)phenylamino)pyrimidine-5-carboxamide]: the IC50 was 100 to 1000 nM against Syk, 1 to 10 nM against JAK3, 10 to 100 nM on JAK1 and 10 to 100 nM against JAK2.
For `COC(=O)Nc1cccc(Nc2ncc(C(N)=O)c(NC3CCCC3)n2)c1` [Example 23, methyl 3-(5-carbamoyl-4-(cyclopentylamino)pyrimidin-2-ylamino)phenylcarbamate], the IC50 against Syk fell in the range of 100 to 1000 nM; against JAK3 it was 1 to 10 nM; at JAK1 it was 10 to 100 nM; at JAK2, 10 to 100 nM.
Consider `COC(=O)Nc1cc(Nc2ncc(C(N)=O)c(NC3CCCC3)n2)ccc1Cl` [Example 25, methyl 5-(5-carbamoyl-4-(cyclopentylamino)pyrimidin-2-ylamino)-2-chlorophenylcarbamate], for which the IC50 against Syk was in the range of 100 to 1000 nM; on JAK3, 10 to 100 nM; at JAK1 it was 10 to 100 nM; against JAK2, 100 to 1000 nM.
Regarding `NC(=O)Nc1cccc(Nc2ncc(C(N)=O)c(NC3CCCC3)n2)c1` [Example 33, 4-(cyclopentylamino)-2-(3-ureidophenylamino)pyrimidine-5-carboxamide], the IC50 at Syk is 100 to 1000 nM; on JAK3, 1 to 10 nM; on JAK1 it was 10 to 100 nM; against JAK2, 10 to 100 nM.
`CNC(=O)Nc1cccc(Nc2ncc(C(N)=O)c(NC3CCCC3)n2)c1` [Example 34, 4-(cyclopentylamino)-2-(3-(3-methylureido)phenylamino)pyrimidine-5-carboxamide]: the IC50 on Syk is 100 to 1000 nM; against JAK3, 1 to 10 nM; on JAK1 it was 10 to 100 nM; against JAK2, 10 to 100 nM.
Regarding `CN(C)C(=O)Nc1cccc(Nc2ncc(C(N)=O)c(NC3CCCC3)n2)c1` [Example 35, 4-(cyclopentylamino)-2-(3-(3,3-dimethylureido)phenylamino)pyrimidine-5-carboxamide], the IC50 against Syk fell in the range of 100 to 1000 nM; against JAK3 it was 1 to 10 nM; on JAK1, 10 to 100 nM; against JAK2, 10 to 100 nM.
For the molecule `CCNC(=O)Nc1cccc(Nc2ncc(C(N)=O)c(NC3CCCC3)n2)c1` [Example 36, 4-(cyclopentylamino)-2-(3-(3-ethylureido)phenylamino)pyrimidine-5-carboxamide], the IC50 lay within 100 to 1000 nM against Syk, 1 to 10 nM at JAK3, 10 to 100 nM at JAK1 and 10 to 100 nM against JAK2.
On to `COCC(=O)Nc1cccc(Nc2ncc(C(N)=O)c(N[C@@H](C)c3ccccc3)n2)c1` [Example 42, (S)-2-(3-(2-methoxyacetamido)phenylamino)-4-(1-phenylethylamino)pyrimidine-5-carboxamide], for which the IC50 against Syk is greater than 1000 nM; on JAK3 it was 100 to 1000 nM; on JAK1, 100 to 1000 nM; at JAK2, 100 to 1000 nM.
Consider `COCC(=O)Nc1cccc(Nc2ncc(C(N)=O)c(NCc3ccc(C)cc3)n2)c1` [Example 43, 2-(3-(2-methoxyacetamido)phenylamino)-4-(4-methylbenzylamino)pyrimidine-5-carboxamide], for which the IC50 at Syk was greater than 1000 nM; against JAK3 it was 10 to 100 nM; at JAK1, 100 to 1000 nM; on JAK2, 100 to 1000 nM.
`CC(=O)Nc1cc(Nc2ncc(C(N)=O)c(NCc3ccccc3)n2)ccc1OCCN1CCCC1` [Example 244, 2-(3-acetamido-4-(2-(pyrrolidin-1-yl)ethoxy)phenylamino)-4-(benzylamino)pyrimidine-5-carboxamide]: the IC50 against TYK2 was 1 to 10 nM; at JAK3, less than 1 nM; on JAK1 it was 10 to 100 nM; at JAK2 it was 10 to 100 nM. Besides, the inhibition at 0.2 µM in assay [1] came out at 51.3%. In addition, in assay [1], the inhibition at 1 µM was found to be 94.7%.
Regarding `CC(C)[C@H](C)Nc1nc(Nc2ccc(Cl)c(NC(=O)N3CCCC3)c2)ncc1C(N)=O` [Example 248, (S)-2-(4-chloro-3-(pyrrolidine-1-carboxamido)phenylamino)-4-(3-methylbutan-2-ylamino)pyrimidine-5-carboxamide], the IC50 was 10 to 100 nM at TYK2, 10 to 100 nM on JAK3, 10 to 100 nM at JAK1 and greater than 1000 nM on JAK2. Further, in assay [1], the inhibition at 0.2 µM came out at 61.3%. The inhibition at 1 µM in assay [1] was determined as 94.7%.

In general, IC50 refers to the concentration that gives 50% inhibition. The term inhibition denotes the percentage by which the read-out fell short of the control.
